Assay results published in patent US20070128217A1 (priority 2003, published 2007).

How the values were obtained:
[1] = tested on: antibodies in sera from SARS patients (sera 1a, 1b, 2, 6, 37, 62, London, SARS-yellow, SARS-green); type: binding, human; design: Binding of serum 6 to linear peptides of protein X1 of SARS-CoV Urbani / Binding of serum 37 to linear peptides of protein X1 of SARS-CoV Urbani / Binding of serum 6 to looped/cyclic peptide (PEPSCAN-ELISA) / Binding of serum 37 to looped/cyclic peptide (PEPSCAN-ELISA) / Binding of serum 37 to looped/cyclic peptides of protein X1 of SARS-CoV Urbani / Binding of serum 6 to linear peptides of protein X2 / Binding of serum 37 to linear peptides of protein X2 / Binding of serum 37 to looped/cyclic peptides of protein X2 of SARS-CoV Urbani / Binding of serum 6 to linear peptides of protein M of SARS-CoV Urbani / Binding of serum 37 to linear peptides of protein M of SARS-CoV Urbani / Binding of serum 6 to looped/cyclic peptides of protein M of SARS-CoV Urbani / Binding of serum 37 to looped/cyclic peptides of protein M of SARS-CoV Urbani / Binding of serum 6 to linear peptides of protein X3 of SARS-CoV Urbani / Binding of serum 37 to linear peptides of protein X3 of SARS-CoV Urbani / Binding of serum 37 to looped/cyclic peptides of protein X3 of SARS-CoV Urbani / Binding of serum 6 to linear peptides of protein X4 of SARS-CoV Urbani / Binding of serum 37 to linear peptides of protein X4 of SARS-CoV Urbani / Binding of serum 37 to looped/cyclic peptides of protein X4 of SARS-CoV Urbani / Binding of serum 6 to linear peptides of protein X5 of SARS-CoV Urbani / Binding of serum 37 to linear peptides of protein X5 of SARS-CoV Urbani / Binding of serum 37 to looped/cyclic peptides of protein X5 of SARS-CoV Urbani / Binding of serum 6 to linear peptides of protein N of SARS-CoV Urbani / Binding of serum 37 to linear peptides of protein N of SARS-CoV Urbani / Binding of serum 6 to linear peptide (PEPSCAN-ELISA) / Binding of serum 1a to looped/cyclic peptides of protein N of SARS-CoV Urbani / Binding of serum 1b to looped/cyclic peptides of protein N of SARS-CoV Urbani / Binding of serum 2 to looped/cyclic peptides of protein N of SARS-CoV Urbani / Binding of serum 6 to looped/cyclic peptides of protein N of SARS-CoV Urbani / Binding of serum 37 to looped/cyclic peptides of protein N of SARS-CoV Urbani / Binding of serum 62 to looped/cyclic peptides of protein N of SARS-CoV Urbani / Binding of serum London to looped/cyclic peptides of protein N of SARS-CoV Urbani / Binding of serum SARS-green to looped/cyclic peptides of protein N of SARS-CoV Urbani: unit not given here
[2] = tested on: control sera (pooled serum of ten healthy LUMC hospital workers; commercial negative donor pooled serum from the Dutch bloodbank); type: binding, human; design: Binding of Control serum LUMC to linear peptides / Binding of Control serum Blood-bank to linear peptides / Binding of Control serum LUMC to looped peptides / Binding of Control Serum Blood-Bank to Looped peptides / Binding of Control serum LUMC to linear peptides of the protein M of SARS-CoV Urbani / Binding of Control serum Blood-bank to linear peptides of the protein M of SARS-CoV Urbani / Binding of Control serum LUMC to looped peptides of the protein M of SARS-CoV Urbani / Binding of Control Serum Blood-Bank to Looped peptides of the protein M of SARS-CoV Urbani: unit not given here
[3] = tested on: rabbit serum obtained by immunizing a rabbit with the SARS-CoV strain Frankfurt 1; type: binding; design: Binding of a rabbit serum to linear peptides / Binding of a rabbit serum to looped peptides / Rabbit serum linear peptides / Rabbit serum looped peptides / Binding of a rabbit serum to linear peptides of protein N of SARS-CoV Urbani (Rabbit serum linear peptides) / Binding of a rabbit serum to looped/cyclic peptides of protein N of SARS-CoV Urbani (Rabbit serum looped peptides): unit not given here
[4] = tested on: recombinant human anti-SARS-CoV antibody 03-018; type: binding; design: Binding of antibody 03-018 to linear peptides of the N protein of SARS-CoV Urbani / Binding of antibody 03-018 to looped/cyclic peptides of the N protein of SARS-CoV Urbani: unit not given here

Sequence	Binding of serum 1a to looped/cyclic peptides of protein N of SARS-CoV Urbani [1]	Binding of serum 1b to looped/cyclic peptides of protein N of SARS-CoV Urbani [1]	Binding of serum 2 to looped/cyclic peptides of protein N of SARS-CoV Urbani [1]	Binding of serum 6 to looped/cyclic peptides of protein N of SARS-CoV Urbani [1]	Binding of serum 37 to looped/cyclic peptides of protein N of SARS-CoV Urbani [1]	Binding of serum 62 to looped/cyclic peptides of protein N of SARS-CoV Urbani [1]	Binding of serum London to looped/cyclic peptides of protein N of SARS-CoV Urbani [1]	Binding of serum SARS-green to looped/cyclic peptides of protein N of SARS-CoV Urbani [1]	Binding of serum SARS-yellow to looped/cyclic peptides of protein N of SARS-CoV Urbani [1]	Binding of Control Serum Blood-Bank to Looped peptides [2]	Binding of Control serum Blood-bank to linear peptides [2]	Binding of Control serum LUMC to linear peptides [2]	Binding of Control serum LUMC to looped peptides [2]	Binding of a rabbit serum to linear peptides of protein N of SARS-CoV Urbani (Rabbit serum linear peptides) [3]	Binding of a rabbit serum to looped/cyclic peptides of protein N of SARS-CoV Urbani (Rabbit serum looped peptides) [3]	Binding of antibody 03-018 to linear peptides of the N protein of SARS-CoV Urbani [4]	Binding of antibody 03-018 to looped/cyclic peptides of the N protein of SARS-CoV Urbani [4]	Binding of serum 1a to linear peptides of protein N of SARS-CoV Urbani [1]	Binding of serum 1b to linear peptides of protein N of SARS-CoV Urbani [1]	Binding of serum 2 to linear peptides of protein N of SARS-CoV Urbani [1]	other results
GSRGGSQASSRSSSR	0.6	0.8	0.7	0.5	0.9	0.7	0.7	1.2	1.6	1.1	0.7	0.7	0.7	0.3	0.6	0.1	0.2	–	–	–	Binding of serum 1a to linear peptide (PEPSCAN-ELISA) [1]: 0.3; Binding of serum 1b to linear peptide (PEPSCAN-ELISA) [1]: 0.1; Binding of serum 2 to linear peptide (PEPSCAN-ELISA) [1]: 0.3; Binding of serum 6 to linear peptide (PEPSCAN-ELISA) [1]: 0.4; Binding of serum 37 to linear peptide (PEPSCAN-ELISA) [1]: 0.7; Binding of serum 62 to linear peptide (PEPSCAN-ELISA) [1]: 0.8; Binding of serum London to linear peptide (PEPSCAN-ELISA) [1]: 0.5; Binding of serum SARS-green to linear peptide (PEPSCAN-ELISA) [1]: 0.2; Binding of serum SARS-yellow to linear peptide (PEPSCAN-ELISA) [1]: 0.8
GTDYKHWPQIAQFAP	0.5	0.3	0.5	0.3	0.7	0.7	0.5	–	0.7	–	–	–	–	0.2	0.5	0.1	0.2	0.3	0.1	0.2	Binding of serum 6 to linear peptides of protein N of SARS-CoV Urbani [1]: 0.2; Binding of serum 37 to linear peptides of protein N of SARS-CoV Urbani [1]: 0.7; Binding of serum 62 to linear peptides of protein N of SARS-CoV Urbani [1]: 0.8; Binding of serum London to linear peptides of protein N of SARS-CoV Urbani [1]: 0.6; Binding of serum SARS-green to linear peptides of protein N of SARS-CoV Urbani [1]: 0.6; Binding of serum SARS-yellow to linear peptides of protein N of SARS-CoV Urbani [1]: 0.7; Control Serum Blood-Bank Looped peptides [2]: 0.8; Control serum Blood-bank linear peptides [2]: 0.8; Control serum LUMC linear peptides [2]: 0.6; Control serum LUMC looped peptides [2]: 0.7
GTGPEASLPYGANKE	0.2	0.2	0.2	0.1	0.4	0.3	0.3	0.2	0.2	0.4	0.7	0.8	0.4	0.1	0.3	0.1	0.2	0.3	0.1	0.3	Binding of serum 6 to linear peptides of protein N of SARS-CoV Urbani [1]: 0.2; Binding of serum 37 to linear peptides of protein N of SARS-CoV Urbani [1]: 0.9; Binding of serum 62 to linear peptides of protein N of SARS-CoV Urbani [1]: 0.9; Binding of serum London to linear peptides of protein N of SARS-CoV Urbani [1]: 0.7; Binding of serum SARS-green to linear peptides of protein N of SARS-CoV Urbani [1]: 0.7; Binding of serum SARS-yellow to linear peptides of protein N of SARS-CoV Urbani [1]: 0.6
GTRNPNNNAATVLQL	0.4	0.3	0.7	0.4	0.9	0.9	0.5	0.6	0.5	1.0	0.8	0.8	0.8	0.1	0.6	0.1	0.3	0.3	0.1	0.3	Binding of serum 6 to linear peptides of protein N of SARS-CoV Urbani [1]: 0.2; Binding of serum 37 to linear peptides of protein N of SARS-CoV Urbani [1]: 0.7; Binding of serum 62 to linear peptides of protein N of SARS-CoV Urbani [1]: 0.7; Binding of serum London to linear peptides of protein N of SARS-CoV Urbani [1]: 0.5; Binding of serum SARS-green to linear peptides of protein N of SARS-CoV Urbani [1]: 0.3; Binding of serum SARS-yellow to linear peptides of protein N of SARS-CoV Urbani [1]: 0.6
